In data set [1] the test system is Human immunodeficiency virus 1. The data set is described as follows: Antiviral activity against R5-tropic HIV1 cYTA48P infected in TZM-bl cells by single round assay. In kind it is functional, organism-based. The following applies: Human immunodeficiency virus 1, cYTA48P.
Data set [2] can be described thus: Cytotoxicity against mock-infected human PM1 cells expressing CCR5 by WST method. In kind it is cell-based.
Data set [3] can be described thus: Volume of distribution in rhesus macaque plasma at 75 mg, iv after 0 to 24 hrs by HPLC analysis. In kind it is ADME, organism-based, Macaca mulatta. The following applies: rhesus monkey.
Data set [4] can be described thus: Initial concentration in rhesus macaque blood at 75 mg, iv after 0 to 24 hrs by HPLC analysis. In kind it is ADME, organism-based, Macaca mulatta. The following applies: rhesus monkey.
Data set [5] in a line: Half life in rhesus macaque plasma at 75 mg, iv after 0 to 24 hrs by HPLC analysis. Conditions: rhesus monkey. The class given is ADME, organism-based, Macaca mulatta.
Data set [6] has as its system Rhesus monkey. The data set is described as follows: Toxicity in rhesus macaque assessed as decrease in body temperature at 77.8 mg, iv after 24 hrs. The class given is organism-based, Macaca mulatta. Conditions: in vivo.
Data set [7] can be described thus: Toxicity in iv dosed rhesus macaque. In kind it is organism-based, Macaca mulatta. Conditions: rhesus monkey, in vivo.
Data set [8] relates to Rhesus monkey. The data set is described as follows: Toxicity in rhesus macaque assessed as survival at 77.8 mg, iv measured after 6 months. In kind it is organism-based, Macaca mulatta. Conditions: in vivo, 4383 h.
Data set [9] concerns Rhesus monkey. The data set is described as follows: Toxicity in rhesus macaque assessed as decrease in body temperature at 77.8 mg, iv measured within 2 hrs. In kind it is organism-based, Macaca mulatta. The following applies: in vivo.
Data set [10] concerns Rhesus monkey. The data set is described as follows: Toxicity in rhesus macaque assessed as mydriasis at 77.8 mg, iv measured within 2 hrs. Conditions: in vivo. The class given is organism-based, Macaca mulatta.
A further data set relates to PM1. The data set is described as follows: Induction of conformational change in R5-tropic HIV1 cYTA48P gp120 infected in human PM1 cells assessed as increase in binding affinity to monoclonal antibody 4C11 at 100 uM after 15 mins by FACS analysis. In kind it is cell-based. The following applies: Human immunodeficiency virus 1.

In the case of `CC1(C)CC(NC(=O)C(=O)Nc2ccc3c(c2)OCO3)CC(C)(C)N1` [listing 1 of 2 here], the IC50 in data set [1] stood at 6.2 µM. This compound also displayed a CC50 in data set [2] above 300 µM. Besides, in data set [3], the volume of distribution (Vd) was found to be 37.2 L. The same compound returned a C0 in [4] of 2.09 µg/mL. This compound gave a half-life in [5] of 1.75 h.

Take `CC1(C)CC(NC(=O)C(=O)Nc2ccc3c(c2)OCO3)CC(C)(C)N1.Cl`: the Activity entry in the data set on Rhesus monkey [6] is reported as “Non-toxic”; in the data set with Rhesus monkey [8], “Non-toxic”; in the data set with Rhesus monkey [9], “Toxic”; in the data set on Rhesus monkey [10], “Toxic”. In data set [7], this compound had an MTD of 12.5 mg/kg.

`O=C(Nc1ccc2c(c1)OCO2)C(=O)NC1CC2(CCCCC2)NC2(CCCCC2)C1` (stereo not given): the IC50 in data set [1] stood at 1.13 µM. The compound also displayed a CC50 in [2] above 200 µM. The Flu intensity with PM1 is 6.93.

The compound `CCOC(=O)C1CCN(NC(=O)C(=O)Nc2ccc3c(c2)OCO3)CC1` displayed an IC50 in data set [1] above 100 µM. In addition, in [2], the CC50 was above 200 µM. In addition, the Flu intensity in the data set on PM1 came out at 7.83.

In the case of `CC1(C)CC(NC(=O)C(=O)Nc2ccc(Cl)cc2)CC(C)(C)N1`, in [1], the IC50 was 0.63 µM. In data set [2], this compound displayed a CC50 of 70.4 µM. In the data set with PM1, the Flu intensity was found to be 8.91.

In the case of `CC1(C)CC(NC(=O)C(=O)Nc2ccc3c(c2)OCO3)CC(C)(C)N1` [listing 2 of 2 here], the Flu intensity with PM1 came out at 12.3.

Source of the values: ChEMBL document CHEMBL3751773, “A minimally cytotoxic CD4 mimic as an HIV entry inhibitor” (Bioorg Med Chem Lett, 2016).
